Results as given in US20210205292A1, “INHIBITORS OF CREB-CBP INTERACTION FOR TREATMENT OF LEUKEMIA” (The Board of Trustees of the Leland Stanford Junior …, priority 2016, published 2021).

Columns and labels:
Assay type in all cases: cell-based
AML cell lines = assay: Viable cell count of AML cell lines (Vi-CELL); settings: four AML cell lines, 48 hours; range across lines, units printed with the values; read-out: IC50, 50% reduced viable cell count compared to DMSO-treated cells
Method: AML cell lines were purchased from ATCC and maintained with IMDM (Gibco) supplemented with 10% FBS (Fisher Scientific) and 1% PSG (Gibco). Cells were plated at a density of 2-4×10^5 cells/ml, and treated with various doses of Compound A in 0.1% DMSO or 0.1% DMSO alone. Cell counts and viability were determined using the Vi-CELL XR Cell Viability Analyzer (Beckman Coulter). HL-60 and KG-1 cells overexpressing CREB or CBP were generated using lentiviral gene delivery with subsequent puromycin selection and FACs sorting for GFP. CREB knockdown was achieved by infecting cells with a lentivirus expressing the shRNA sequence 5′-[…]-3′ (SEQ ID NO:). For chemotherapy combination experiments, combination index values were calculated using median effects analysis on Calcusyn software. Human patient bone marrow samples were cultured in DMEM plus 20% FBS and 1×PSG, supplemented with recombinant GM-CSF (20 ng/ml), G-CSF (20 ng/ml), SCF (50 ng/ml), IL-3 (20 ng/ml), and IL-6 (10 ng/ml). Cells were plated at a concentration of 1×10^5 cells/ml in a 12-well plate. Vehicle (0.1% DMSO) or Compound A (2 μM) was added for up to 72 hours. All samples contained >85% AML blasts and were not sorted prior to performing experiments. […] Single cell suspensions of bone marrow culture were subsequently analyzed on a D×P10 flow cytometer (Cytek). […]

CMV-driven promoter = assay: CMV-driven luciferase reporter in KG-1 cells; settings: 6 hours
Method: KG-1 cell lines were created to express luciferase in a CREB-dependent or non-CREB-dependent fashion using lentiviral gene delivery. Cells were sorted for mCherry expression by flow cytometry and selected with puromycin. Luciferase activity was measured on a […] using the Promega Luciferase Activity Kit (Promega) per manufacturer's instructions following six hours of treatment with Compound A or 0.1% DMSO. The split Renilla luciferase complementation assay has been described previously (Li BX, and Xiao X. Discovery of a small-molecule inhibitor of the KIX-KID interaction. Chembiochem: a European journal of chemical biology. 2009; 10(17):2721-4). In this assay, the KID and KIX domains were fused to the N- and C-terminal regions of Renilla luciferase, respectively. Once KIX binds phosphorylated KID, the Renilla luciferase regions were brought together, resulting in luciferase activity.
To test the ability of Compound A to disrupt CREB-CBP binding in cells, a split Renilla luciferase complementation assay was performed. […] This early timepoint was selected to permit accurate reporter gene activity measurement prior to the onset of anticipated global cell dysfunction or death induced by Compound A. Treatment with 3 μM Compound A reduced luciferase activity by 33.2±7.7% at this timepoint. […] Thus, Compound A inhibits CREB function through disruption of CREB:CBP interaction.

[1] = test system: Cyclin A1, Cyclin D1, Fra-1, RFC-3; assay: Expression of CREB-regulated cell cycle genes
Method: Cyclin A1 and D1 expression was decreased following 12 hours of treatment, while Fra-1 and RFC-3 expression decreased following 48 hours of treatment.
Mol Cell Biol. 2004; 24(11):4696-709) (FIG. 6, panel C). […] Levels of RFC-3 also decrease following Compound A treatment (FIG. 6, panel C).

CREB genomic binding = assay: CREB ChIP-Seq in KG-1 cells; settings: 5 μM, 6 hours
Method: For Chip-Seq experiments, KG-1 cells were treated with 5 μM Compound A or DMSO for 6 hours. Cells were cross-linked with 1% formaldehyde at room temperature for 10 min and then incubated with […] for 5 min. After cross-linking, chromatin was digested by Micrococcal nuclease and then sonicated using SimpleChIP® Plus Enzymatic Chromatin IP Kit (Cell Signaling, Danvers, Mass.) following the manufacturer's protocol. Chromatin immunoprecipitations were carried out with anti-CREB antibody (Millipore, Billerica, Mass.) or a control IgG (Santa Cruz Biotechnology). The captured immunocomplexes containing bound transcriptional DNA fragments were eluted, with recovered DNA fragments used for PCR amplification. For RNA-Seq experiments, KG-1 cells were treated with Compound A (5 μM) or 0.1% DMSO for 12 hours. RNA was prepared using the Aurum Total RNA Mini Kit (Bio-Rad). Sample libraries were run using the Illumina sequencing platform. Two hundred million reads were collected on two biological replicates of the experiment. […]
To determine the functional specificity and downstream effects of Compound A in AML, the CREB transcriptome was first defined in KG-1 cells using CREB chromatin immunoprecipitation followed by high-throughput sequencing (CREB ChIP-Se). […] In this way, the ‘on-target’ effects of Compound A could be assessed.

`N#Cc1ccc(NC(=O)c2cc3ccccc3cc2O)cc1` [Compound A, N-(4-cyanophenyl)-3-hydroxy-2-naphthamide] was tested, and the IC50 (AML cell lines) was 0.87 to 2.3 µM, the CMV-driven luciferase expression (CMV-driven promoter) was “unchanged” and the “Cyclin A1 and D1 expression” value ([1]; 12 hours of treatment) was “decreased”. The “Fra-1 and RFC-3 expression” value ([1]; 48 hours of treatment) was “decreased” and the CREB genomic binding (CREB genomic binding) was “did not change”.
